The subject of assay [1] is IL-17A-induced G-CSF production in human normal keratinocyte (NHK). The assay can be described thus: NHK Assay: IL-17A-induced G-CSF production in human normal keratinocytes. To be noted: Homo sapiens, Keratinocyte, 24 h, adult normal human keratinocytes, IL-17A 5 ng/mL, simple average if tested more than once. It counts as cell-based. The essentials:
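G-CSF released by primary adult human keratinocytes after 24 h at 37° C was quantified by HTRF via standard curve to give IC50. Stimulus was 5 ng/mL IL-17A pre-mixed 1 h at rt with compound dilutions, in 5% FBS and 0.2% DMSO. Cell viability was assessed in parallel with CellTiter-Glo.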

Assay [2] has as its target IL-17A(FLAG-Tagged): IL-17RA(His-Tagged) (Homo sapiens, UniProt Q16552, K93Q). The assay can be described thus: IL-17A(FLAG-Tagged): IL-17RA(His-Tagged) Binding Disruption Eu-HTRF Assay. To be noted: IL-17A/IL-17RA binding disruption, simple average if tested more than once. The method in brief: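 IC50 comes from a one-site competition fit of the HTRF 665/620 nm ratio. Compound dilutions (2-fold, 22 points) were held 1 h rt with FLAG-tagged IL-17A dimer, then His-tagged IL-17RA plus Eu-cryptate anti-FLAG and D2 anti-His antibodies were added for 2 h rt.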
In general terms: In TR-FRET formats the signal depends on donor and acceptor labels being close together.

Where only a bound is given, the exact number is not on record here.

Sequence of UniProt Q16552 (Q16552 with tags, fused parts or gaps K93Q): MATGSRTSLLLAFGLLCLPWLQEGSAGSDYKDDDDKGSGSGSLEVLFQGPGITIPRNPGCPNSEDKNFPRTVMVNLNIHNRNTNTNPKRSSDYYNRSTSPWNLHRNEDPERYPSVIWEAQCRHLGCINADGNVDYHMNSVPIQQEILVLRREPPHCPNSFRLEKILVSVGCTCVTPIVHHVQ

Turning to `O=C(CCC(F)(F)F)N[C@@H](c1cnn2cc([C@@H](NC(=O)[C@@H]3C[C@H]3CF)C3CCC(F)(F)CC3)nc2c1)C1CC1` (relative stereo) [Example 362, (1R*,2R*)—N—((S)-(7-((R*)-Cyclopropyl(4,4,4-trifluorobutanamido)methyl)imidazo[1,2-b]pyridazin-2-yl)(4,4-difluorocyclohexyl)methyl)-2-(fluoromethyl)cyclopropane-1-carboxamide], the IC50 in assay [1] was over 20000 nM; in assay [2], 4200 nM.
For `O=C(CCC(F)(F)F)N[C@@H](c1cnn2cc([C@@H](NC(=O)[C@H]3C[C@@H]3CF)C3CCC(F)(F)CC3)nc2c1)C1CC1` (relative stereo) [Example 363, (1S*,2S*)—N—((S)-(7-((R*)-Cyclopropyl(4,4,4-trifluorobutanamido)methyl)imidazo[1,2-b]pyridazin-2-yl)(4,4-difluorocyclohexyl)methyl)-2-(fluoromethyl)cyclopropane-1-carboxamide], the IC50 in assay [1] turned out to be 1100 nM; in assay [2], 640 nM.
For the compound `O=C(CCC(F)(F)F)N[C@@H](c1cnn2cc([C@@H](NC(=O)[C@H]3C[C@H]3CF)C3CCC(F)(F)CC3)nc2c1)C1CC1` (relative stereo) [Example 364, (1S*,2R*)—N—((S)-(7-((R*)-Cyclopropyl(4,4,4-trifluorobutanamido)methyl)imidazo[1,2-b]pyridazin-2-yl)(4,4-difluorocyclohexyl)methyl)-2-(fluoromethyl)cyclopropane-1-carboxamide], the IC50 in assay [1] was over 20000 nM; in assay [2] it was 2100 nM.
Consider `O=C(CCC(F)(F)F)N[C@@H](c1cnn2cc([C@@H](NC(=O)[C@@H]3C[C@@H]3CF)C3CCC(F)(F)CC3)nc2c1)C1CC1` (relative stereo) [Example 365, (1R*,2S*)—N—((S)-(7-((R*)-Cyclopropyl(4,4,4-trifluorobutanamido)methyl)imidazo[1,2-b]pyridazin-2-yl)(4,4-difluorocyclohexyl)methyl)-2-(fluoromethyl)cyclopropane-1-carboxamide], for which the IC50 in assay [1] was over 20000 nM; in assay [2], 1200 nM.
For `O=C(CCC(F)(F)F)N[C@@H](c1cnn2cc([C@@H](NC(=O)[C@@H]3CC34CCC4)C3CCC(F)(F)CC3)nc2c1)C1CC1` (relative stereo) [Example 366, (R*)—N—((S)-(7-((R*)-Cyclopropyl(4,4,4-trifluorobutanamido)methyl)imidazo[1,2-b]pyridazin-2-yl)(4,4-difluorocyclohexyl)methyl)spiro[2.3]hexane-1-carboxamide], the IC50 in assay [1] is over 20000 nM; in assay [2] it was 2400 nM.
Consider `O=C(CCC(F)(F)F)N[C@@H](c1cnn2cc([C@@H](NC(=O)[C@H]3CC34CCC4)C3CCC(F)(F)CC3)nc2c1)C1CC1` (relative stereo) [Example 367, (S*)—N—((S)-(7-((R*)-Cyclopropyl(4,4,4-trifluorobutanamido)methyl)imidazo[1,2-b]pyridazin-2-yl)(4,4-difluorocyclohexyl)methyl)spiro[2.3]hexane-1-carboxamide], for which the half-inhibitory concentration (IC50) was found to be 630 nM in assay [1] and 240 nM in assay [2].
`O=C(CCC(F)(F)F)N[C@@H](c1cnn2cc([C@@H](NC(=O)[C@H]3C(F)(F)C34CCC4)C3CCC(F)(F)CC3)nc2c1)C1CC1` (relative stereo) [Example 368, (S*)—N—((S)-(7-((R*)-Cyclopropyl(4,4,4-trifluorobutanamido)methyl)imidazo[1,2-b]pyridazin-2-yl)(4,4-difluorocyclohexyl)methyl)-2,2-difluorospiro[2.3]hexane-1-carboxamide]: the values for the half-inhibitory concentration (IC50) in assay [1] and in assay [2] were 9800 nM and 1600 nM, respectively.
Take `O=C(CCC(F)(F)F)N[C@@H](c1cnn2cc([C@@H](NC(=O)[C@@H]3C(F)(F)C34CCC4)C3CCC(F)(F)CC3)nc2c1)C1CC1` (relative stereo) [Example 369, (R*)—N—((S)-(7-((R*)-Cyclopropyl(4,4,4-trifluorobutanamido)methyl)imidazo[1,2-b]pyridazin-2-yl)(4,4-difluorocyclohexyl)methyl)-2,2-difluorospiro[2.3]hexane-1-carboxamide]: the IC50 in assay [1] was 530 nM; in assay [2], 140 nM.
For the compound `CC(C)n1nccc1C(=O)N[C@H](c1cn2ncc([C@H](NC(=O)CC3CC(F)(F)C3)C3CC3)cc2n1)[C@@H]1C[C@@H]2[C@H](C1)C2(F)F` (relative stereo) [Example 404, N—((S*)-(7-((R)-Cyclopropyl(2-(3,3-difluorocyclobutyl)acetamido)methyl)imidazo[1,2-b]pyridazin-2-yl)((1R,3s,5S)-6,6-difluorobicyclo[3.1.0]hexan-3-yl)methyl)-1-isopropyl-1H-pyrazole-5-carboxamide], the IC50 in assay [1] was determined as 58 nM; in assay [2] it was 180 nM.
Turning to `Cc1nonc1C(=O)N[C@H](c1cn2ncc([C@H](NC(=O)CC3CC(F)(F)C3)C3CC3)cc2n1)[C@@H]1C[C@@H]2[C@H](C1)C2(F)F` (relative stereo) [Example 405, N—((S*)-(7-((R)-Cyclopropyl(2-(3,3-difluorocyclobutyl)acetamido)methyl)imidazo[1,2-b]pyridazin-2-yl)((1R,3s,5S)-6,6-difluorobicyclo[3.1.0]hexan-3-yl)methyl)-4-methyl-1,2,5-oxadiazole-3-carboxamide], the IC50 was found to be 350 nM in assay [1] and 100 nM in assay [2].
Taken in the same sequence, the figures for `N#CC1([C@@H](NC(=O)C[C@H]2CC2(F)F)c2cnn3cc([C@@H](NC(=O)c4nonc4C4CC4)C4CCC(F)(F)CC4)nc3c2)CCC1` (relative stereo) [Example 449, N—((S)-(7-((S*)-(1-Cyanocyclobutyl)(2-((S*)-2,2-difluorocyclopropyl)acetamido)methyl)imidazo[1,2-b]pyridazin-2-yl)(4,4-difluorocyclohexyl)methyl)-4-cyclopropyl-1,2,5-oxadiazole-3-carboxamide] were 4.7 nM and 28 nM.
Take `[2H]C([2H])([2H])n1nccc1C(=O)N[C@H](c1cn2ncc([C@@H](NC(=O)CC3CC(F)(F)C3)C3CCC3)cc2n1)C1CCC(F)(F)CC1` (relative stereo) [Example 498, N—((S)-(7-((S*)-Cyclobutyl(2-(3,3-difluorocyclobutyl)acetamido)methyl)imidazo[1,2-b]pyridazin-2-yl)(4,4-difluorocyclohexyl)methyl)-1-methyl-d3)-1H-pyrazole-5-carboxamide]: the IC50 in assay [1] worked out at 20000 nM; in assay [2], 380 nM.
Regarding `[2H]C([2H])([2H])C([2H])([2H])n1nccc1C(=O)N[C@H](c1cn2ncc([C@H](NC(=O)C[C@H](C)C(F)(F)F)C3CCC3)cc2n1)C1CCC(F)(F)CC1` (relative stereo) [Example 500, N—((S)-(7-((R*)-Cyclobutyl((S*)-4,4,4-trifluoro-3-methylbutanamido)methyl)imidazo[1,2-b]pyridazin-2-yl)(4,4-difluorocyclohexyl)methyl)-1-(ethyl-d5)-1H-pyrazole-5-carboxamide], the IC50 in assay [1] is 140 nM; in assay [2], 150 nM.
Take `[2H]C([2H])([2H])C([2H])([2H])n1nccc1C(=O)N[C@H](c1cn2ncc([C@H](NC(=O)C[C@@H](C)C(F)(F)F)C3CCC3)cc2n1)C1CCC(F)(F)CC1` (relative stereo) [Example 501, N—((S)-(7-((R*)-Cyclobutyl((R*)-4,4,4-trifluoro-3-methylbutanamido)methyl)imidazo[1,2-b]pyridazin-2-yl)(4,4-difluorocyclohexyl)methyl)-1-(ethyl-d5)-1H-pyrazole-5-carboxamide]: the values for the IC50 in assay [1] and in assay [2] were 95 nM and 120 nM, respectively.
For `[2H]C([2H])([2H])n1nccc1C(=O)N[C@H](c1cn2ncc([C@H](NC(=O)C[C@@H](C)C(F)(F)F)C3CCC3)cc2n1)C1CCC(F)(F)CC1` (relative stereo) [Example 502, N—((S)-(7-((R*)-Cyclobutyl((R*)-4,4,4-trifluoro-3-methylbutanamido)methyl)imidazo[1,2-b]pyridazin-2-yl)(4,4-difluorocyclohexyl)methyl)-1-(methyl-d3)-1H-pyrazole-5-carboxamide], the results for the IC50 in assay [1] and in assay [2] were 400 nM and 160 nM, respectively.
Regarding `[2H]C([2H])([2H])n1nccc1C(=O)N[C@H](c1cn2ncc([C@H](NC(=O)C[C@H](C)C(F)(F)F)C3CCC3)cc2n1)C1CCC(F)(F)CC1` (relative stereo) [Example 503, N—((S)-(7-((R*)-Cyclobutyl((S*)-4,4,4-trifluoro-3-methylbutanamido)methyl)imidazo[1,2-]pyridazin-2-yl)(4,4-difluorocyclohexyl)methyl)-1-(methyl-d3)-1H-pyrazole-5-carboxamide], the values for the IC50 in assay [1] and in assay [2] were 130 nM and 100 nM, respectively.
Taken in the same sequence, the figures for `[2H]C([2H])([2H])C([2H])([2H])n1nccc1C(=O)N[C@H](c1cn2ncc([C@H](CC)NC(=O)CC3CC(F)(F)C3)cc2n1)C1CCC(F)(F)CC1` (relative stereo) [Example 508, N—((S)-(7-((S*)-1-(2-(3,3-Difluorocyclobutyl)acetamido)propyl)imidazo[1,2-b]pyridazin-2-yl)(4,4-difluorocyclohexyl)methy)-1-(ethyl-d5)-1H-pyrazole-5-carboxamide] were 10000 nM and 1200 nM.
In the case of `CC[C@H](NC(=O)CC1CC(F)(F)C1)c1cnn2cc([C@@H](NC(=O)c3nonc3C3CC3)C3CCC(F)(F)CC3)nc2c1` (relative stereo) [Example 521, 4-Cyclopropyl-N—((S*)-(7-((R)-1-(2-(3,3-difluorocyclobutyl)acetamido)propyl)imidazo[1,2-b]pyridazin-2-yl)(4,4-difluorocyclohexyl)methyl)-1,2,5-oxadiazole-3-carboxamide], the IC50 in assay [1] came out at 8000 nM; in assay [2], 390 nM.

Broadly, the IC50 is the concentration needed to halve the response being measured. Lower therefore signals greater potency.

The values are drawn from US11702422B2, “Imidazopyridazines as modulators of IL-17” (Janssen Pharmaceutica NV, priority 2020, dated 2023).
